Test results taken from patent US12145947B2, “Pyrimidine based modulators and uses thereof” (Quanta Therapeutics, Inc., priority 2022, dated 2024).

Key:
[1] = target: T1, GST-tagged KRAS-G12D (2-169) (Homo sapiens, UniProt P01116, G12D); test: Nucleotide exchange assay (NEA), SOS-mediated, HTRF, KRAS G12D; type: biochemical; details: Table 4; IC50 extracted at 30 min
T1 construct: GST-tagged KRAS-G12D (2-169, Reaction Biology, MSC-11-539); purchased Reaction Biology MSC-11-539 (KRAS G12D); MSC-11-502 (SOS1cat)
T1 sequence (P01116 2-169 isoform P01116-2 G12D): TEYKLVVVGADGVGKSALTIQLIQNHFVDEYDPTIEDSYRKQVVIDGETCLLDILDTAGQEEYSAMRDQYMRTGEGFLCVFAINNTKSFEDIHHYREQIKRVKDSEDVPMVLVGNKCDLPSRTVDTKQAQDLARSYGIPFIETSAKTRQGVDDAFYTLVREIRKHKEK
How it was run: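 IC50 values come from 4-parameter fits at the 30 min time point of an SOS-driven exchange read by HTRF, normalised to DMSO (0%) and SOS-free blank (100%). Final reaction: 5 nM GST-KRAS-G12D (2-169), 20 nM SOScat, 150 nM fluorescent GTP-DY-647P1, after 1 h RT compound preincubation with KRAS and Tb-cryptate anti-GST.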

KRAS G12D/RAF1 = target: T2, KRAS G12D/RAF1 (Homo sapiens, UniProt P01116, G12D); test: Protein-protein interaction (PPI) HTRF assay KRAS G12D/RAF1; type: binding; details: Table 4
T2 construct: His6-MBP (N, cleaved yes); made in house; host or cells: E. coli
T2 sequence (P01116 with tags, fused parts or gaps isoform P01116-2 G12D): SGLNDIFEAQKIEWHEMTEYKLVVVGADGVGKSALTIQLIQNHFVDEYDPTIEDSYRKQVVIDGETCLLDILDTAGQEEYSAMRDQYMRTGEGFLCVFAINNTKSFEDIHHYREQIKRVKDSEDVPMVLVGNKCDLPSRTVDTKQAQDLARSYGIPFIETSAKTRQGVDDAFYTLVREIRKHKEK
How it was run: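 HTRF pairing of His-tagged RAF1 (52-131) plus Tb-cryptate donor with GppNHp-exchanged biotin-RAS (KRAS 1-169 wt/G12D/G12V, NRAS wt) plus streptavidin-d2 acceptor; compound sits 30 min with RAS first, then 1 h RT with RAF1. IC50 derived from 665/615 ratio, untagged RAF1 defining full inhibition.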

Structure (SMILES)	IC50 [1]	IC50 (KRAS G12D/RAF1)
N#Cc1c(N2C[C@H]3CC[C@@H](C2)N3)nc(OCC2(CN3CCOCC3)CC2(F)F)nc1N1CC2(CCc3sc(N)c(C#N)c32)C1 (stereo partly drawn) [Compound 68, 2-amino-1-[5-cyano-2-[[2,2-difluoro-1-(morpholinomethyl)cyclopropyl]methoxy]-6-[(1R,5S)-3,8-diazabicyclo[3.2.1]octan-3-yl]pyrimidin-4-yl]spiro[5,6-dihydrocyclopenta[b]thiophene-4,3′-azetidine]-3-carbonitrile]	< 10 nM	1 to 10 µM
N#Cc1c(N2C[C@H]3CC[C@@H](C2)N3)nc(OCC2(CN3CCSCC3)CC2)nc1N1CC2(CCc3sc(N)c(C#N)c32)C1 [Compound 72, 2-amino-1′-[5-cyano-6-[(1R,5S)-3,8-diazabicyclo[3.2.1]octan-3-yl]-2-[[1-(thiomorpholinomethyl)cyclopropyl]methoxy]pyrimidin-4-yl]spiro[5,6-dihydrocyclopenta[b]thiophene-4,3′-azetidine]-3-carbonitrile]	< 10 nM	0.1 to 1 µM
C[C@H]1COCCN1CC1(COc2nc(N3C[C@H]4CC[C@@H](C3)N4)c(C#N)c(N3CC4(CCc5sc(N)c(C#N)c54)C3)n2)CC1 [Compound 77, 2-amino-1′-[5-cyano-6-[(1R,5S)-3,8-diazabicyclo[3.2.1]octan-3-yl]-2-[[1-[[(3S)-3-methylmorpholin-4-yl]methyl]cyclopropyl]methoxy]pyrimidin-4-yl]spiro[5,6-dihydrocyclopenta[b]thiophene-4,3′-azetidine]-3-carbonitrile]	< 10 nM	10 to 100 µM
N#Cc1c(N2C[C@H]3CC[C@@H](C2)N3)nc(OCC2(CN3C[C@@H](F)[C@@H](F)C3)CC2)nc1N1CC2(CCc3sc(N)c(C#N)c32)C1 [Compound 78, 2-amino-1′-[5-cyano-6-[(1R,5S)-3,8-diazabicyclo[3.2.1]octan-3-yl]-2-[[1-[[(3S,4R)-3,4-difluoropyrrolidin-1-yl]methyl]cyclopropyl]methoxy]pyrimidin-4-yl]spiro[5,6-dihydrocyclopenta[b]thiophene-4,3′-azetidine]-3-carbonitrile]	10 to 100 nM	> 100 µM
C[C@@H]1COCCN1CC1(COc2nc(N3C[C@H]4CC[C@@H](C3)N4)c(C#N)c(N3CC4(CCc5sc(N)c(C#N)c54)C3)n2)CC1 [Compound 82, 2-amino-1′-[5-cyano-6-[(1R,5S)-3,8-diazabicyclo[3.2.1]octan-3-yl]-2-[[1-[[(3R)-3-methylmorpholin-4-yl]methyl]cyclopropyl]methoxy]pyrimidin-4-yl]spiro[5,6-dihydrocyclopenta[b]thiophene-4,3′-azetidine]-3-carbonitrile]	100 to 1000 nM	10 to 100 µM
CN1CCC[C@H]1COc1nc(N2C[C@H]3CC[C@@H](C2)N3)c(C#N)c(N2CC3(CCc4sc(N)c(C#N)c43)C2)n1 [Compound 83, 2-amino-1′-[5-cyano-6-[(1R,5S)-3,8-diazabicyclo[3.2.1]octan-3-yl]-2-[[(2S)-1-methylpyrrolidin-2-yl]methoxy]pyrimidin-4-yl]spiro[5,6-dihydrocyclopenta[b]thiophene-4,3′-azetidine]-3-carbonitrile]	< 10 nM	0.1 to 1 µM
N#Cc1c(N2C[C@H]3CC[C@@H](C2)N3)nc(OCC2(c3ccccc3)CC2)nc1N1CC2(CCc3sc(N)c(C#N)c32)C1 [Compound 84, 2-amino-1′-[5-cyano-6-[(1R,5S)-3,8-diazabicyclo[3.2.1]octan-3-yl]-2-[(1-phenylcyclopropyl)methoxy]pyrimidin-4-yl]spiro[5,6-dihydrocyclopenta[b]thiophene-4,3′-azetidine]-3-carbonitrile]	< 10 nM	0.1 to 1 µM
N#Cc1c(N2C[C@H]3CC[C@@H](C2)N3)nc(OCc2[nH]ncc2F)nc1N1CC2(CCc3sc(N)c(C#N)c32)C1 [Compound 90, 2-amino-1′-[5-cyano-6-[(1R,5S)-3,8-diazabicyclo[3.2.1]octan-3-yl]-2-[(4-fluoro-1H-pyrazol-5-yl)methoxy]pyrimidin-4-yl]spiro[5,6-dihydrocyclopenta[b]thiophene-4,3′-azetidine]-3-carbonitrile]	10 to 100 nM	10 to 100 µM
N#Cc1c(N2C[C@H]3CC[C@@H](C2)N3)nc(OCC2(CN3CCS(=O)(=O)CC3)CC2)nc1N1CC2(CCc3sc(N)c(C#N)c32)C1 [Compound 95, 2-amino-1′-[5-cyano-6-[(1R,5S)-3,8-diazabicyclo[3.2.1]octan-3-yl]-2-[[1-[(1,1-dioxo-1,4-thiazinan-4-yl)methyl]cyclopropyl]methoxy]pyrimidin-4-yl]spiro[5,6-dihydrocyclopenta[b]thiophene-4,3′-azetidine]-3-carbonitrile]	< 10 nM	1 to 10 µM
N#Cc1c(N2C[C@H]3CC[C@@H](C2)N3)nc(OCc2n[nH]cc2Br)nc1N1CC2(CCc3sc(N)c(C#N)c32)C1 [Compound 102, 2-amino-1′-[2-[(4-bromo-1H-pyrazol-3-yl)methoxy]-5-cyano-6-[(1S,5R)-3,8-diazabicyclo[3.2.1]octan-3-yl]pyrimidin-4-yl]spiro[5,6-dihydrocyclopenta[b]thiophene-4,3′-azetidine]-3-carbonitrile]	< 10 nM	10 to 100 µM
N#Cc1c(N2C[C@H]3CC[C@@H](C2)N3)nc(OCc2cn[nH]n2)nc1N1CC2(CCc3sc(N)c(C#N)c32)C1 [Compound 103, 2-amino-1′-[5-cyano-6-[(1R,5S)-3,8-diazabicyclo[3.2.1]octan-3-yl]-2-(2H-triazol-4-ylmethoxy)pyrimidin-4-yl]spiro[5,6-dihydrocyclopenta[b]thiophene-4,3′-azetidine]-3-carbonitrile]	10 to 100 nM	10 to 100 µM
N#Cc1c(N2C[C@H]3CC[C@@H](C2)N3)nc(OCc2n[nH]cc2Cl)nc1N1CC2(CCc3sc(N)c(C#N)c32)C1 [Compound 104, 2-amino-1′-[2-[(4-chloro-1H-pyrazol-3-yl)methoxy]-5-cyano-6-[(1R,5S)-3,8-diazabicyclo[3.2.1]octan-3-yl]pyrimidin-4-yl]spiro[5,6-dihydrocyclopenta[b]thiophene-4,3′-azetidine]-3-carbonitrile]	< 10 nM	10 to 100 µM
N#Cc1c(N2C[C@H]3CC[C@@H](C2)N3)nc(OCc2cc(Cl)[nH]n2)nc1N1CC2(CCc3sc(N)c(C#N)c32)C1 [Compound 105, 2-amino-1′-[2-[(5-chloro-1H-pyrazol-3-yl)methoxy]-5-cyano-6-[(1R,5S)-3,8-diazabicyclo[3.2.1]octan-3-yl]pyrimidin-4-yl]spiro[5,6-dihydrocyclopenta[b]thiophene-4,3′-azetidine]-3-carbonitrile]	< 10 nM	10 to 100 µM
N#Cc1c(N2C[C@H]3CC[C@@H](C2)N3)nc(OCc2n[nH]cc2C(F)(F)F)nc1N1CC2(CCc3sc(N)c(C#N)c32)C1 [Compound 106, 2-amino-1′-[5-cyano-6-[(1R,5S)-3,8-diazabicyclo[3.2.1]octan-3-yl]-2-[[4-(trifluoromethyl)-1H-pyrazol-3-yl]methoxy]pyrimidin-4-yl]spiro[5,6-dihydrocyclopenta[b]thiophene-4,3′-azetidine]-3-carbonitrile]	10 to 100 nM	10 to 100 µM
Cc1nc(COc2nc(N3C[C@H]4CC[C@@H](C3)N4)c(C#N)c(N3CC4(CCc5sc(N)c(C#N)c54)C3)n2)n[nH]1 [Compound 107, 2-amino-1′-[5-cyano-6-[(1R,5S)-3,8-diazabicyclo[3.2.1]octan-3-yl]-2-[(5-methyl-1H-1,2,4-triazol-3-yl)methoxy]pyrimidin-4-yl]spiro[5,6-dihydrocyclopenta[b]thiophene-4,3′-azetidine]-3-carbonitrile]	10 to 100 nM	10 to 100 µM
